Measurements: publication PMC11089506 (Journal of Medicinal Chemistry, 2024)
Counter-ions that a name gives are not always drawn. Like-named read-outs stand apart in the source and are kept apart here.

Key:
human 5-HT2AR = human 5-HT2AR (Homo sapiens, UniProt P28223); experiment: Ca2+/Fluo-4 assay, agonist mode, stable 5-HT2AR-HEK293 cells; conditions: for 5-HT2AR pEC50 ± S.E.M. / 5-HT2AR Rmax ± S.E.M.: Table S2; for EC50: at least 3 independent experiments; for 5-HT2AR Rmax (%): % of the 5-HT Rmax; for 5-HT2AR Rmax ± S.E.M.: % of the 5-HT Rmax on the same 96-well plate; for fold drop in agonist potency (fold higher EC50) at 5-HT2AR: relative to (S)-11
human 5-HT2CR = human 5-HT2CR (Homo sapiens, UniProt P28335); experiment: Ca2+/Fluo-4 assay, agonist mode, stable 5-HT2CR-HEK293 cells; conditions: for 5-HT2CR Rmax (%): % of the 5-HT Rmax; for 5-HT2CR Rmax ± S.E.M.: % of the 5-HT Rmax on the same 96-well plate
[1] = read-out: 5-HT2AR EC50, Table 1
[2] = read-out: 5-HT2CR EC50, Table 1, at least 3 independent experiments
[3] = 5-HT2CR EC50 (nM), Table 1, at least 3 independent experiments
[4] = read-out: 5-HT2CR EC50, Table S2
[5] = 5-HT2CR EC50 (nM), Table 2, at least 3 independent experiments
[6] = read-out: 5-HT2AR EC50, Table 2
[7] = read-out: 5-HT2CR EC50, Table 2, at least 3 independent experiments

Chain of human 5-HT2CR (P28335 33-458): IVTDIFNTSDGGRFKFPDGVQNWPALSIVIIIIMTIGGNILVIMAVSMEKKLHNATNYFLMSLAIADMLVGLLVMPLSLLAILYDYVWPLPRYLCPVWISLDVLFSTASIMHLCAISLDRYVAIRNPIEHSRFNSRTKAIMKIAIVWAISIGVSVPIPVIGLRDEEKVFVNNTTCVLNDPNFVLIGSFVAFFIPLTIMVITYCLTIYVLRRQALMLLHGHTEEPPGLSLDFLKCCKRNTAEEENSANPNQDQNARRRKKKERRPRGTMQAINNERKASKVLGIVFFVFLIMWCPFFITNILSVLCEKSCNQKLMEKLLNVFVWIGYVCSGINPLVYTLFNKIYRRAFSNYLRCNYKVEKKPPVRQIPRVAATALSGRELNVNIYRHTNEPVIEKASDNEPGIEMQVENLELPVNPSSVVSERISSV
Chain of human 5-HT2AR (P28223 whole entry): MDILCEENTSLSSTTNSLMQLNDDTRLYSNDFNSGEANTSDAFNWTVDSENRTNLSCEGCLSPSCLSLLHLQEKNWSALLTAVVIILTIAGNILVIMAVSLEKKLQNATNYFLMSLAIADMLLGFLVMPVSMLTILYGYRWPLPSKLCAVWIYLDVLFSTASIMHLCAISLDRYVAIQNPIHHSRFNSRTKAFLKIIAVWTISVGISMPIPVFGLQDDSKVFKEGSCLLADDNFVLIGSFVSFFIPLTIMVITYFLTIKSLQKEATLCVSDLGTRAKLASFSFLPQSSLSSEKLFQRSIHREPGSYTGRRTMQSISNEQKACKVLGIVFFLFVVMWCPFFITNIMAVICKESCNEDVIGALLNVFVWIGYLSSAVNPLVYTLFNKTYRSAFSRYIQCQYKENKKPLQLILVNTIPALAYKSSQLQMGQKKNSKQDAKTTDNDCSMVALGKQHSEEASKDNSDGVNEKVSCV

Structure (SMILES)	5-HT2AR pEC50 ± S.E.M. (human 5-HT2AR)	EC50 (human 5-HT2AR; [1])	5-HT2CR pEC50 ± S.E.M. (human 5-HT2CR; Table S2)	EC50 (human 5-HT2CR; [2])	5-HT2AR Rmax (%) (human 5-HT2AR; Table 2)	5-HT2AR Rmax ± S.E.M. (human 5-HT2AR)	EC50 (human 5-HT2AR; [6])	further results
CCSc1cc(OC)c(C2CCCNC2)cc1OC.Cl (centres unmarked) [Compound 16eu, 3-(2,5-Dimethoxy-4-(ethylthio)phenyl)piperidine Hydrochloride]	7.42 ± 0.09	38 nM	6.25 ± 0.08	570 nM	–	–	–	–
COc1cc(C2CCCNC2)c(OC)cc1Br (centres unmarked) [Compound 6dis, 3-(4-Bromo-2,5-dimethoxyphenyl)piperidine]	–	–	–	–	–	–	–	EC50 (human 5-HT2AR; 5-HT2AR EC50 (nM), Table 1): 370 nM; EC50 (human 5-HT2CR; [3]): 1900 nM
COc1cc(C2CCCNC2)c(OC)cc1C#N (centres unmarked) [Compound 10dis, 2,5-Dimethoxy-4-(piperidin-3-yl)benzonitrile]	5.66 ± 0.06	2200 nM	~ 5.0	~10000 nM	–	–	–	EC50 (human 5-HT2CR; [4]): ~10000 nM
CCSc1cc(OC)c(C2CCCNC2)cc1OC.Cl (centres unmarked) [Compound 16dis, 3-(2,5-Dimethoxy-4-(ethylthio)phenyl)piperidine Hydrochloride]	6.73 ± 0.10	190 nM	6.11 ± 0.08	780 nM	–	–	–	–
COc1cc(C(F)(F)F)c(OC)cc1[C@H]1CCCN(C)C1 [(R)-19, (R)-3-(2,5-Dimethoxy-4-(trifluoromethyl)phenyl)-1-methylpiperidine]	5.96 ± 0.09	–	–	–	53%	53 ± 8%	–	EC50 (human 5-HT2CR; [5]): > 10000 nM
CCOc1cc(C(F)(F)F)c(OCC)cc1C1CCCNC1.Cl (centres unmarked) [Compound 26dis, 3-(2,5-Diethoxy-4-(trifluoromethyl)phenyl)piperidine Hydrochloride]	5.52 ± 0.06	–	–	–	69%	69 ± 4%	3000 nM	EC50 (human 5-HT2CR; [7]): > 10000 nM
CCOc1cc(C2CCCNC2)c(OC)cc1C(F)(F)F.Cl (centres unmarked) [Compound 25dis, 3-(5-Ethoxy-2-methoxy-4-(trifluoromethyl)phenyl)piperidine Hydrochloride]	6.50 ± 0.10	–	–	–	86%	86 ± 6%	320 nM	EC50 (human 5-HT2CR; [5]): > 10000 nM
COc1ccc(OC)c(C2CCCNC2)c1 (centres unmarked) [Compound 7, 3-(2,5-Dimethoxyphenyl)piperidine]	–	–	–	–	–	–	–	agonist activity at 5-HT2AR (in words) (human 5-HT2AR): very weak 5-HT2AR agonist activity; EC50 (human 5-HT2AR; 5-HT2AR EC50 (nM), Table 1): > 10000 nM; EC50 (human 5-HT2CR; [3]): > 10000 nM
COc1cc(C2CCCNC2)c(OC)cc1I (centres unmarked) [Compound 9dis, 3-(4-Iodo-2,5-dimethoxyphenyl)piperidine]	6.58 ± 0.03	260 nM	5.55 ± 0.08	2800 nM	–	–	–	–
COc1cc(C2CCCNC2)c(OC)cc1Cl (centres unmarked) [Compound 8dis, 3-(4-Chloro-2,5-dimethoxyphenyl)piperidine]	6.16 ± 0.11	690 nM	5.75 ± 0.04	1800 nM	–	–	–	–
CCOc1cc(C(F)(F)F)c(OC)cc1C1CCCNC1.Cl (centres unmarked) [Compound 24eu, 3-(2-Ethoxy-5-methoxy-4-(trifluoromethyl)phenyl)piperidine Hydrochloride]	7.42 ± 0.10	–	–	–	40%	40 ± 3%	38 nM	EC50 (human 5-HT2CR; 5-HT2CR EC50, Table S2): > 10000 nM
CCc1cc(OC)c(C2CCCNC2)cc1OC.Cl (centres unmarked) [Compound 13dis, 3-(4-Ethyl-2,5-dimethoxyphenyl)piperidine Hydrochloride]	6.94 ± 0.09	110 nM	6.19 ± 0.12	640 nM	–	–	–	–
CCOc1cc(C(F)(F)F)c(OCC)cc1C1CCCNC1.Cl (centres unmarked) [Compound 26eu, 3-(2,5-Diethoxy-4-(trifluoromethyl)phenyl)piperidine Hydrochloride]	6.99 ± 0.07	–	–	–	47%	47 ± 6%	100 nM	fold drop in agonist potency (fold higher EC50) at 5-HT2AR (human 5-HT2AR): 30 fold; EC50 (human 5-HT2CR; [5]): > 10000 nM
COc1cc(C(F)(F)F)c(OC)cc1[C@@H]1CCCN(C)C1 [(S)-19, (S)-3-(2,5-Dimethoxy-4-(trifluoromethyl)phenyl)-1-methylpiperidine]	–	–	6.04 ± 0.03	–	19%	19 ± 2%	–	–
COc1cc(C(F)(F)F)ccc1C1CCCNC1.Cl (centres unmarked) [Compound 22dis, 3-(2-Methoxy-4-(trifluoromethyl)phenyl)piperidine Hydrochloride]	6.18 ± 0.07	–	5.85 ± 0.05	–	80%	80 ± 5%	660 nM	EC50 (human 5-HT2CR; [7]): 1400 nM
Br.COc1cc(C2CCNC2)c(OC)cc1Br (centres unmarked) [Compound 5dis, 3-(4-Bromo-2,5-dimethoxyphenyl)pyrrolidine Hydrobromide]	8.11 ± 0.08	7.7 nM	7.75 ± 0.08	18 nM	–	39 ± 4%	–	5-HT2AR Rmax (%) (human 5-HT2AR; Table 1): 39 ± 4%; Rmax at 5-HT2CR (human 5-HT2CR): 73%; 5-HT2CR Rmax (%) (human 5-HT2CR; Table 1): 16 ± 3%; 5-HT2CR Rmax ± S.E.M. (human 5-HT2CR; Table S2): 16 ± 3%
COc1cc(C2CNC2)c(OC)cc1Br [Compound 4, 3-(4-Bromo-2,5-dimethoxyphenyl)azetidine Hydrochloride]	8.80 ± 0.10	1.6 nM	8.24 ± 0.07	5.2 nM	–	97 ± 3%	–	5-HT2AR Rmax (%) (human 5-HT2AR; Table 1): 97 ± 3%; 5-HT2CR Rmax ± S.E.M. (human 5-HT2CR; Table S2): 90 ± 3%
COc1cc(C2CCCNC2)ccc1C(F)(F)F.Cl (centres unmarked) [Compound 23dis, 3-(3-Methoxy-4-(trifluoromethyl)phenyl)piperidine Hydrochloride]	5.61 ± 0.07	–	5.85 ± 0.13	–	65%	65 ± 3%	2500 nM	5-HT2CR Rmax (%) (human 5-HT2CR; Table 2): 35%; 5-HT2CR Rmax ± S.E.M. (human 5-HT2CR; Table S2): 35 ± 3%; EC50 (human 5-HT2CR; [7]): 1400 nM
CCCCc1cc(OC)c(C2CCCNC2)cc1OC.Cl (centres unmarked) [Compound 14dis, 3-(4-Butyl-2,5-dimethoxyphenyl)piperidine Hydrochloride]	6.46 ± 0.05	340 nM	5.80 ± 0.07	1600 nM	–	–	–	–
CCCCc1cc(OC)c(C2CCCNC2)cc1OC.Cl (centres unmarked) [Compound 14eu, 3-(4-Butyl-2,5-dimethoxyphenyl)piperidine Hydrochloride]	6.57 ± 0.06	270 nM	–	–	–	–	–	EC50 (human 5-HT2CR; [3]): > 10000 nM
CCOc1cc(C2CCCNC2)c(OC)cc1C(F)(F)F.Cl (centres unmarked) [Compound 25eu, 3-(5-Ethoxy-2-methoxy-4-(trifluoromethyl)phenyl)piperidine Hydrochloride]	7.99 ± 0.11	–	6.54 ± 0.04	–	95%	95 ± 1%	10 nM	EC50 (human 5-HT2CR; [7]): 290 nM
CCN1CCC[C@H](c2cc(OC)c(C(F)(F)F)cc2OC)C1 [(R)-20, (R)-3-(2,5-Dimethoxy-4-(trifluoromethyl)phenyl)-1-ethylpiperidine]	–	–	–	–	–	–	–	EC50 (human 5-HT2AR; 5-HT2AR EC50 (nM), Table 2): > 10000 nM; EC50 (human 5-HT2CR; [5]): > 10000 nM
COc1cc(C2CCCNC2)c(OC)cc1SC(C)C (centres unmarked) [Compound 17dis, 3-(4-(Isopropylthio)-2,5-dimethoxyphenyl)piperidine]	6.54 ± 0.09	290 nM	5.64 ± 0.05	2300 nM	–	–	–	–
COc1cc(C2CCCNC2)c(OC)cc1SC.Cl (centres unmarked) [Compound 15eu, 3-(2,5-Dimethoxy-4-(methylthio)phenyl)piperidine Hydrochloride]	7.59 ± 0.11	26 nM	6.29 ± 0.06	510 nM	–	–	–	–
COc1cc(C2CCCNC2)ccc1C(F)(F)F.Cl (centres unmarked) [Compound 23, 3-(3-Methoxy-4-(trifluoromethyl)phenyl)piperidine Hydrochloride]	–	–	–	–	–	–	–	fold drop in agonist potency (fold higher EC50) at 5-HT2AR (human 5-HT2AR): more than 500 fold
COc1cc(C(F)(F)F)ccc1C1CCCNC1.Cl (centres unmarked) [Compound 22eu, 3-(2-Methoxy-4-(trifluoromethyl)phenyl)piperidine Hydrochloride]	7.16 ± 0.05	–	–	–	68%	68 ± 2%	69 nM	EC50 (human 5-HT2CR; [5]): > 10000 nM
CCOc1cc(C(F)(F)F)c(OC)cc1C1CCCNC1.Cl (centres unmarked) [Compound 24dis, 3-(2-Ethoxy-5-methoxy-4-(trifluoromethyl)phenyl)piperidine Hydrochloride]	6.39 ± 0.08	–	5.56 ± 0.02	–	77%	77 ± 7%	410 nM	EC50 (human 5-HT2CR; [5]): > 10000 nM; EC50 (human 5-HT2CR; [4]): 2700 nM
COc1cc(C(F)(F)F)c(OC)cc1[C@H]1CCCNC1 [(R)-11, 3-(2,5-Dimethoxy-4-(trifluoromethyl)phenyl)piperidine Hydrochloride]	–	–	6.07 ± 0.06	–	–	–	–	–
COc1cc(C2CCCNC2)c(OC)cc1SC.Cl (centres unmarked) [Compound 15dis, 3-(2,5-Dimethoxy-4-(methylthio)phenyl)piperidine Hydrochloride]	6.75 ± 0.06	180 nM	5.63 ± 0.03	2300 nM	–	–	–	–
NCCc1c[nH]c2ccc(O)cc12 [Compound 5-HT, 5-hydroxytryptamine, reference compound]	–	–	–	–	–	100%	–	5-HT2AR Rmax (%) (human 5-HT2AR; Table 1): 100%
